Test results as given in ChEMBL document CHEMBL5346957, “Enantioselective Synthesis and Biological Evaluation of Pyrrolidines Bearing Quaternary Stereogenic Centers” (J Med Chem, 2023).
Activity calls are given as the source filed them. The rule behind the calls is not given here.

Assays:
A-375 [1] = experiment: Antiproliferative activity against human A-375 cells incubated for 72 hrs measured by MTT assay; type: functional, cell-based; details: A-375, 72 h
HepG2 = experiment: Antiproliferative activity against human HepG2 cells incubated for 72 hrs measured by MTT assay; type: functional, cell-based; details: HepG2, 72 h
A549 = experiment: Antiproliferative activity against human A549 cells incubated for 72 hrs measured by MTT assay; type: functional, cell-based; details: A549, 72 h
PC-3 = experiment: Antiproliferative activity against human PC-3 cells incubated for 72 hrs measured by MTT assay; type: functional, cell-based; details: PC-3, 72 h
[2] = Cytotoxicity against human BEAS-2B cells incubated for 72 hrs measured by MTT assay; type: toxicity, cell-based
MIA PaCa-2 = experiment: Antiproliferative activity against human MIA PaCa-2 cells incubated for 72 hrs measured by MTT assay; type: functional, cell-based; details: MIA PaCa-2, 72 h
HeLa = experiment: Antiproliferative activity against human HeLa cells incubated for 72 hrs measured by MTT assay; type: functional, cell-based
HCT-116 = experiment: Antiproliferative activity against human HCT-116 cells incubated for 72 hrs measured by MTT assay; type: functional, cell-based; details: HCT-116, 72 h
MDA-MB-231 = experiment: Antiproliferative activity against human MDA-MB-231 cells incubated for 72 hrs measured by MTT assay; type: functional, cell-based; details: MDA-MB-231, 72 h
A-375 [3] = experiment: Effect cycle arrest in human A-375 cells assessed as accumulation of cells in G2/M phase at 1 uM measured by flow cytometric analysis (reference value: 26.76%); type: functional
A-375 [4] = experiment: Induction of apoptosis in human A-375 cells assessed as apoptotic cells at 0.5 uM measured by annexin V/PI based flow cytometric analysis (reference value: 10.8%); type: functional
A-375 [5] = experiment: Effect on mitotic progression in human A-375 cells assessed as mitotic index at 0.5 uM measured by flow cytometric analysis (reference value: 3.22%); type: functional
Aurora kinase C = target: T1, Aurora kinase C (Homo sapiens, UniProt Q9UQB9); experiment: Inhibition of Aurora C (unknown origin) incubated for 1 hr by microplate reader analysis
T1 sequence (Q9UQB9 whole entry): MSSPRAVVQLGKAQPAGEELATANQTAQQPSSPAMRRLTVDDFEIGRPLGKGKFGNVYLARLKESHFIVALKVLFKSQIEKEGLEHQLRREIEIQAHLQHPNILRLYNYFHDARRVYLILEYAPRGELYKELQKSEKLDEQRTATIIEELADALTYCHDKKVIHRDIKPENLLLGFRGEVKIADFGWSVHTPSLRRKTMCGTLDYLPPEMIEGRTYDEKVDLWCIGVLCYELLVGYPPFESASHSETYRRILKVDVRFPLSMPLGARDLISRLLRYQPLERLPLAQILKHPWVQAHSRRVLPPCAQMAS

A-375 [6] = experiment: Induction of apoptosis in human A-375 cells assessed as early apoptotic cells at 2 uM measured by annexin V/PI based flow cytometric analysis (reference value: 9.78%); type: functional
A-375 [7] = experiment: Induction of apoptosis in human A-375 cells assessed as late apoptotic cells at 1 uM measured by annexin V/PI based flow cytometric analysis (reference value: 1.07%); type: functional
[8] = target: T2, Aurora kinase A (Homo sapiens) (UniProt O14965); experiment: Inhibition of Aurora A (unknown origin) assessed as downregulation of kinase phosphorylation at 0.5 to 2 uM by Western blot analysis; details: dose 0.5-2 µM
T2 sequence (whole entry): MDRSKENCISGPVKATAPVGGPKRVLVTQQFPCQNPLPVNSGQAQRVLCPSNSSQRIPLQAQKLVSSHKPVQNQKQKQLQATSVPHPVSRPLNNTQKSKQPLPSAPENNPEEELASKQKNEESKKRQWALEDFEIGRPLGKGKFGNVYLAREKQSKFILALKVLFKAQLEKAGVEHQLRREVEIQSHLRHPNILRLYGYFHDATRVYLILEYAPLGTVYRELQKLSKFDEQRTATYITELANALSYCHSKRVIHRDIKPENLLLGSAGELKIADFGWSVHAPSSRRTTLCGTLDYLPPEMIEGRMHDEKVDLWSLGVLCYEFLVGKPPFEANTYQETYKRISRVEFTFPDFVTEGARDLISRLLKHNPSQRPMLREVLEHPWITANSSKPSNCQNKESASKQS

A-375 [9] = experiment: Induction of apoptosis in human A-375 cells assessed as early apoptotic cells at 1 uM measured by annexin V/PI based flow cytometric analysis (reference value: 9.78%); type: functional
A-375 [10] = experiment: Induction of apoptosis in human A-375 cells assessed as late apoptotic cells at 2 uM measured by annexin V/PI based flow cytometric analysis (reference value: 1.07%); type: functional
Aurora kinase B = Aurora kinase B (Homo sapiens, UniProt Q96GD4); experiment: Inhibition of Aurora B (unknown origin) incubated for 1 hr by microplate reader analysis
Sequence of Aurora kinase B (Q96GD4 whole entry): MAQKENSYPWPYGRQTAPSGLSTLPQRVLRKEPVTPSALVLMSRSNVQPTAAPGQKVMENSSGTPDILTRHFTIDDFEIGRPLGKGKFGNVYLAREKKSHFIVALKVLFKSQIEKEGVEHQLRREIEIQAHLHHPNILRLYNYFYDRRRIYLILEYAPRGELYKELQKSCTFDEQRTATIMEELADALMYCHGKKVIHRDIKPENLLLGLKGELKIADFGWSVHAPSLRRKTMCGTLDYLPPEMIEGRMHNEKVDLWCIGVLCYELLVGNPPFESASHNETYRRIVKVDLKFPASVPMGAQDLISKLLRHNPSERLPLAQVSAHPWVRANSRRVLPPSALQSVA

A-375 [11] = experiment: Induction of apoptosis in human A-375 cells assessed as late apoptotic cells at 0.5 uM measured by annexin V/PI based flow cytometric analysis (reference value: 1.07%); type: functional
A-375 [12] = experiment: Effect cycle arrest in human A-375 cells assessed as accumulation of cells in G2/M phase at 0.5 uM measured by flow cytometric analysis (reference value: 26.76%); type: functional
A-375 [13] = experiment: Induction of apoptosis in human A-375 cells assessed as early apoptotic cells at 0.5 uM measured by annexin V/PI based flow cytometric analysis (reference value: 9.78%); type: functional
A-375 [14] = experiment: Effect cycle arrest in human A-375 cells assessed as accumulation of cells in G2/M phase at 2 uM measured by flow cytometric analysis (reference value: 26.76%); type: functional
A-375 [15] = experiment: Effect on mitotic progression in human A-375 cells assessed as mitotic index at 1 uM measured by flow cytometric analysis (reference value: 3.22%); type: functional
A-375 [16] = experiment: Effect on mitotic progression in human A-375 cells assessed as mitotic index at 2 uM measured by flow cytometric analysis (reference value: 3.22%); type: functional
A-375 [17] = experiment: Induction of apoptosis in human A-375 cells assessed as apoptotic cells at 2 uM measured by annexin V/PI based flow cytometric analysis (reference value: 10.8%); type: functional
A-375 [18] = experiment: Induction of apoptosis in human A-375 cells assessed as apoptotic cells at 1 uM measured by annexin V/PI based flow cytometric analysis (reference value: 10.8%); type: functional
Aurora kinase A = target: T3, Aurora kinase A (Homo sapiens, UniProt O14965); experiment: Inhibition of Aurora A (unknown origin) incubated for 1 hr by microplate reader analysis
T3 sequence (O14965 whole entry): T2 sequence (whole entry)

SMILES	IC50 (A-375 [1]) [µM]	IC50 (HepG2) [µM]	IC50 (A549) [µM]	IC50 (PC-3) [µM]	IC50 at 72 h [2] [µM]	IC50 (MIA PaCa-2) [µM]	IC50 (HeLa) [µM]	IC50 (HCT-116) [µM]	IC50 (MDA-MB-231) [µM]	further results
CCOc1ccc([C@@H]2[C@@H](C(=O)OC)N[C@@H](c3ccccc3)[C@@]2(C)[N+](=O)[O-])cc1	7.42	29	11.5	14	> 100	21.4	16.5	12.4	16.8	–
CCOc1ccc([C@@H]2[C@@H]([N+](=O)[O-])[C@@H](c3ccccc3)N[C@H]2C(=O)OC)cc1	> 100	> 100	> 100	> 100	> 100	> 100	> 100	> 100	> 100	–
CCOc1ccc([C@@H]2[C@@](C)([N+](=O)[O-])[C@@H](c3ccccc3)N[C@@]2(C)C(=O)OC)cc1	26.8	> 100	49.2	32.5	> 100	> 100	82.8	74.7	34.7	–
CCOc1ccc([C@H]2[C@](C)([N+](=O)[O-])[C@H](c3ccccc3)N[C@]2(C)C(=O)OC)cc1	0.24	1.67	0.51	0.4	> 100	1.07	0.96	0.73	0.43	Activity (A-375 [3]): 54.46%; Activity (A-375 [4]): 22.7%; Activity (A-375 [5]): 6.24%; IC50 (Aurora kinase C): Not Active; Activity (A-375 [6]): 19.8%; Activity (A-375 [7]): 14.6%; inhibition [8]: Active; Activity (A-375 [9]): 20.4%; Activity (A-375 [10]): 17.8%; IC50 (Aurora kinase B): Not Active; Activity (A-375 [11]): 9.23%; Activity (A-375 [12]): 32.73%; Activity (A-375 [13]): 13.5%; Activity (A-375 [14]): 68.69%; Activity (A-375 [15]): 10.82%; Activity (A-375 [16]): 18.51%; Activity (A-375 [17]): 37.6%; Activity (A-375 [18]): 35%; IC50 (Aurora kinase A): 284 nM
CCOc1ccc([C@H]2[C@H](C(=O)OC)N[C@H](c3ccccc3)[C@]2(C)[N+](=O)[O-])cc1	> 100	> 100	> 100	> 100	> 100	> 100	> 100	> 100	> 100	–
CCOc1ccc([C@H]2[C@H]([N+](=O)[O-])[C@H](c3ccccc3)N[C@@H]2C(=O)OC)cc1	> 100	> 100	> 100	> 100	> 100	> 100	> 100	> 100	> 100	–
CCOc1ccc([C@H]2[C@H]([N+](=O)[O-])[C@H](c3ccccc3)N[C@]2(C)C(=O)OC)cc1	> 100	> 100	> 100	> 100	> 100	> 100	> 100	> 100	> 100	–
CCOc1ccc([C@@H]2[C@@H]([N+](=O)[O-])[C@@H](c3ccccc3)N[C@@]2(C)C(=O)OC)cc1	> 100	> 100	> 100	> 100	> 100	> 100	> 100	> 100	> 100	–
